Laboratory results published in patent US20210045385A1, “PYRIDAZINONE-SUBSTITUTED KETOXIMES AS HERBICIDES” (FMC Corporation, priority 2018, published 2021).

Key:
Type in all cases: in vivo
[1] = tested on: Italian ryegrass (Lolium mutiflorum); assay: Test C preemergence, visual plant response rating; conditions: Test C, 0 is no effect, 100 is complete control
How it was run: (§1)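 Compounds in a non-phytotoxic solvent with surfactant were applied as a directed soil spray preemergence or to 2–10 cm, one- to two-leaf plants postemergence, in loam–sand soil. After about 10 d in a greenhouse, injury was visually rated against untreated controls on a 0–100 scale (100 = complete control).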

[2] = tested on: barnyardgrass (Echinochloa crus-galli); assay: Test C preemergence, visual plant response rating; conditions: Test C, 0 is no effect, 100 is complete control
How it was run: as §1

[3] = tested on: foxtail, giant (giant foxtail, Setaria faberi); assay: Test C preemergence, visual plant response rating; conditions: Test C, 0 is no effect, 100 is complete control
How it was run: as §1

kochia (Bassia scoparia) [4] = assay: Test C preemergence, visual plant response rating; conditions: Test C, 0 is no effect, 100 is complete control
How it was run: as §1

[5] = tested on: pigweed (Amaranthus retroflexus); assay: Test C preemergence, visual plant response rating; conditions: Test C, 0 is no effect, 100 is complete control
How it was run: as §1

[6] = tested on: ragweed (common ragweed, Ambrosia artemisiifolia); assay: Test C preemergence, visual plant response rating; conditions: Test C, 0 is no effect, 100 is complete control
How it was run: as §1

[7] = tested on: Italian ryegrass (Lolium mutiflorum); assay: Test C postemergence, visual plant response rating
How it was run: as §1

[8] = tested on: barnyardgrass (Echinochloa crus-galli); assay: Test C postemergence, visual plant response rating
How it was run: as §1

[9] = tested on: blackgrass (Alopecurus myosuroides); assay: Test C postemergence, visual plant response rating
How it was run: as §1

corn (Zea mays) = assay: Test C postemergence, visual plant response rating
How it was run: as §1

[10] = tested on: foxtail, giant (giant foxtail, Setaria faberi); assay: Test C postemergence, visual plant response rating
How it was run: as §1

[11] = tested on: galium (catchweed bedstraw, Galium aparine); assay: Test C postemergence, visual plant response rating
How it was run: as §1

kochia (Bassia scoparia) [12] = assay: Test C postemergence, visual plant response rating
How it was run: as §1

[13] = tested on: pigweed (Amaranthus retroflexus); assay: Test C postemergence, visual plant response rating
How it was run: as §1

[14] = tested on: ragweed (common ragweed, Ambrosia artemisiifolia); assay: Test C postemergence, visual plant response rating
How it was run: as §1

[15] = tested on: wheat (Triticum aestivum); assay: Test C postemergence, visual plant response rating
How it was run: as §1

[16] = tested on: barnyardgrass (Echinochloa crus-galli); assay: Test D flooded paddy test, visual plant response rating; conditions: 250 g ai/ha, scale 0 to 100 (0 no effect, 100 complete control), 13 to 15 d
How it was run: (§2)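 2-leaf plants, flooded 3 cm, cpd into paddy water; greenhouse 13–15 d; visual rating vs controls, 0 = no effect, 100 = complete control; dash = no result.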

[17] = tested on: duck salad (Heteranthera limosa); assay: as above; conditions: 250 g ai/ha, scale 0 to 100 (0 no effect, 100 complete control), 13 to 15 d
How it was run: as §2

rice (Oryza sativa) = assay: as above; conditions: 250 g ai/ha, scale 0 to 100 (0 no effect, 100 complete control), 13 to 15 d
How it was run: as §2

[18] = tested on: sedge umbrella (small-flower umbrella sedge, Cyperus difformis); assay: as above; conditions: 250 g ai/ha, scale 0 to 100 (0 no effect, 100 complete control), 13 to 15 d
How it was run: as §2

[19] = Test C, postemergence, 125 g ai/ha

SMILES	Ryegrass, Italian plant response rating (0 to 100 scale) ([1]; 31 g ai/ha)	Ryegrass, Italian plant response rating (0 to 100 scale) ([1]; 125 g ai/ha)	Barnyardgrass plant response rating (0 to 100 scale) ([2]; 31 g ai/ha)	Barnyardgrass plant response rating (0 to 100 scale) ([2]; 125 g ai/ha)	Foxtail, Giant plant response rating (0 to 100 scale) ([3]; 31 g ai/ha)	Foxtail, Giant plant response rating (0 to 100 scale) ([3]; 125 g ai/ha)	Kochia plant response rating (0 to 100 scale) (kochia (Bassia scoparia) [4]; 31 g ai/ha)	Kochia plant response rating (0 to 100 scale) (kochia (Bassia scoparia) [4]; 125 g ai/ha)	Pigweed plant response rating (0 to 100 scale) ([5]; 31 g ai/ha)	Pigweed plant response rating (0 to 100 scale) ([5]; 125 g ai/ha)	Ragweed plant response rating (0 to 100 scale) ([6]; 31 g ai/ha)	Ragweed plant response rating (0 to 100 scale) ([6]; 125 g ai/ha)	Ryegrass, Italian plant response rating (0 to 100 scale) ([7]; Postemergence, 31 g ai/ha)	Ryegrass, Italian plant response rating (0 to 100 scale) [7, 19]	Barnyardgrass plant response rating (0 to 100 scale) ([8]; Postemergence, 31 g ai/ha)	Barnyardgrass plant response rating (0 to 100 scale) [8, 19]	Blackgrass plant response rating (0 to 100 scale) ([9]; Postemergence, 31 g ai/ha)	Blackgrass plant response rating (0 to 100 scale) [9, 19]	Corn plant response rating (0 to 100 scale) (corn (Zea mays); Postemergence, 31 g ai/ha)	Corn plant response rating (0 to 100 scale) (corn (Zea mays); [19])	other results
C=CCO/N=C(\c1c(O)c(C)nn(C)c1=O)c1cccc2cc(Cl)ccc12 [Compound 243]	0	20	20	80	80	100	0	0	70	100	30	80	10	40	70	80	30	50	0	30	Foxtail, Giant plant response rating (0 to 100 scale) ([10]; Postemergence, 31 g ai/ha): 70; Foxtail, Giant plant response rating (0 to 100 scale) [10, 19]: 80; Galium plant response rating (0 to 100 scale) ([11]; Postemergence, 31 g ai/ha): 80; Galium plant response rating (0 to 100 scale) [11, 19]: 90; Kochia plant response rating (0 to 100 scale) (kochia (Bassia scoparia) [12]; Postemergence, 31 g ai/ha): 20; Kochia plant response rating (0 to 100 scale) (kochia (Bassia scoparia) [12]; [19]): 20; Pigweed plant response rating (0 to 100 scale) ([13]; Postemergence, 31 g ai/ha): 80; Pigweed plant response rating (0 to 100 scale) [13, 19]: 90; Ragweed plant response rating (0 to 100 scale) ([14]; Postemergence, 31 g ai/ha): 60; Ragweed plant response rating (0 to 100 scale) [14, 19]: 90; Wheat plant response rating (0 to 100 scale) ([15]; Postemergence, 31 g ai/ha): 0; Wheat plant response rating (0 to 100 scale) [15, 19]: 0; Plant response rating, Barnyardgrass (Flood) [16]: 40; Plant response rating, Ducksalad (Flood) [17]: 80; Plant response rating, Rice (Flood) (rice (Oryza sativa)): 45; Plant response rating, Sedge, Umbrella (Flood) [18]: 100
CCO/N=C(/c1c(O)c(C)nn(C)c1=O)c1cccc2cc(Cl)ccc12 [Compound 244]	0	20	40	70	90	100	0	0	50	90	10	20	0	10	30	50	40	70	10	30	Foxtail, Giant plant response rating (0 to 100 scale) ([10]; Postemergence, 31 g ai/ha): 80; Foxtail, Giant plant response rating (0 to 100 scale) [10, 19]: 80; Galium plant response rating (0 to 100 scale) ([11]; Postemergence, 31 g ai/ha): 80; Galium plant response rating (0 to 100 scale) [11, 19]: 90; Kochia plant response rating (0 to 100 scale) (kochia (Bassia scoparia) [12]; Postemergence, 31 g ai/ha): 20; Kochia plant response rating (0 to 100 scale) (kochia (Bassia scoparia) [12]; [19]): 20; Pigweed plant response rating (0 to 100 scale) ([13]; Postemergence, 31 g ai/ha): 80; Pigweed plant response rating (0 to 100 scale) [13, 19]: 90; Ragweed plant response rating (0 to 100 scale) ([14]; Postemergence, 31 g ai/ha): 90; Ragweed plant response rating (0 to 100 scale) [14, 19]: 40; Wheat plant response rating (0 to 100 scale) ([15]; Postemergence, 31 g ai/ha): 0; Wheat plant response rating (0 to 100 scale) [15, 19]: 0; Plant response rating, Barnyardgrass (Flood) [16]: 10; Plant response rating, Ducksalad (Flood) [17]: 50; Plant response rating, Rice (Flood) (rice (Oryza sativa)): 15; Plant response rating, Sedge, Umbrella (Flood) [18]: 45
